Data reported in US7273856B2, “Linear basic compounds having NK-2 antagonist activity and formulations thereof” (Menarini Ricerche S.P.A., priority 2001, dated 2007).
Counter-ions that a name gives are not always drawn.

Target: T1, human NK-2 receptor (Homo sapiens, UniProt P21452)
T1 construct: expressed in transfected cells; host or cells: CHO (Chinese hamster ovary) cells, membranes
T1 sequence (P21452 1-398): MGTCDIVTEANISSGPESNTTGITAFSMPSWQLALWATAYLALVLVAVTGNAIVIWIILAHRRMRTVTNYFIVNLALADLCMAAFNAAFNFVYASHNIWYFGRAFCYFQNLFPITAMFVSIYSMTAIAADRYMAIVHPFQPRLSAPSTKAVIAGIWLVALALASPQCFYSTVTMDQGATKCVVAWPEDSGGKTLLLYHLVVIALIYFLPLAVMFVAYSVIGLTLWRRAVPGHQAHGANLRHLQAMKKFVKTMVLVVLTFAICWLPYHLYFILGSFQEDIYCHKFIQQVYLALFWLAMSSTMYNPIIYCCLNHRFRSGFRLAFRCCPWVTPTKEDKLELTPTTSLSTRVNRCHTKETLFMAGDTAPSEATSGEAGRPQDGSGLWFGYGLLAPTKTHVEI
Assay: binding test, affinity for the human NK-2 receptor, competition with [125I]NKA on transfected CHO cell membranes
Conditions: CHO cell membranes transfected with NK-2 receptor of human ileum; [125I]NKA 100 pM; 30 min, 20° C.
Protocol: The evaluation of the antagonist activity on NK-2 receptors has been assessed by binding and functional tests according to that already described in literature in relation to NK-2 antagonists.
The test substances have been tested within a concentration range from 0.01 nM to 10 nM. At the end of the incubation time (30 min, 20° C.) the samples have been filtered and radioactivity has been determined using a gamma-counter.

Row | pKi | Ki | SMILES
1 | 9.1 |  | O=C(NC1(C(=O)N[C@H](Cc2ccccc2)C(=O)NCCCN2CCOCC2)CCCCC1)c1cc2ccccc2s1 [Example 20, N^α[N^α(benzo[b]thiophen-2-yl-carbonyl)-1-aminocyclohexan-1-carboxy]-D-phenylalanine-N-[3(morpholin-4-yl)propyl]amide]
2 |  | 0.0501 nM | NC1CCCCC1NC(=O)C1CCCC(NC(=O)[C@H](Cc2ccccc2)NC(=O)C2(NC(=O)c3cc4ccccc4s3)CCCC2)C1 (stereo partly drawn) [Example 26, acid-3-cis-N^γ{N^α[N^α(benzo[b]thiophen-2-ylcarbonyl)-1-aminocyclopentane-1-carboxy]-L-phenylalanil}aminocyclohexane-1-carboxylic-N-(2-cis-aminocyclohexyl) amide]
3 |  | 0.0631 nM | N[C@@H]1CCCC[C@H]1NC(=O)[C@@H]1C[C@@H](NC(=O)[C@@H](Cc2ccccc2)NC(=O)C2(NC(=O)c3cc4ccccc4s3)CCCCC2)CN1 [Example 27, N^γ{N^α[N^α(benzo[b]thiophen-2-ylcarbonyl)-1-aminocyclohexane-1-carboxy]-D-phenylalanil}-(L-(4R)amino-proline-N-(1R,2R)-aminocyclohexyl) amide]
4 |  | 0.1 nM | N[C@@H]1CCCC[C@@H]1NC(=O)C1CCCC(NC(=O)[C@@H](Cc2ccccc2)NC(=O)C2(NC(=O)c3cc4ccccc4s3)CCCC2)C1 (stereo partly drawn) [Example 30, acid-3-cis-N^γ{N^α[N^α(benzo[b]thiophen-2-ylcarbonyl)-1-aminocyclopentane-1-carboxy]-D-phenylalanil}aminocyclohexane-1-carboxylic-N-[(1S,2R)-aminocyclohexyl]amide]
5 |  | 0.0794 nM | N[C@H]1CCCC[C@@H]1NC(=O)C1CCCC(NC(=O)[C@@H](Cc2ccccc2)NC(=O)C2(NC(=O)c3cc4ccccc4s3)CCCC2)C1 (stereo partly drawn) [Example 31, acid-3-cis-N^γ{N^α[N^α(benzo[b]thiophen-2-ylcarbonyl)-1-aminocyclopentan-1-carboxy]-D-phenylalanil}aminocyclohexan-1-carboxylic-N-[(1S,2S)-aminocyclohexyl]amide]
6 |  | 1.26 nM | CN1CCN(C[C@@H]2CC[C@H](NC(=O)[C@@H](Cc3ccccc3)NC(=O)C3(NC(=O)c4cc5ccccc5s4)CCCC3)C2)CC1 [Example 32]
7 |  | 0.631 nM | CN1CCN(C(=O)[C@@H]2CC[C@H](NC(=O)[C@@H](Cc3ccccc3)NC(=O)C3(NC(=O)c4cc5ccccc5s4)CCCC3)C2)CC1 [Example 33, N^α[N^α(benzo[b]thiophen-2-ylcarbonyl)-1-aminocyclopentan-1-carboxy]-D-phenylalanine amide-N-[(1S,3R)-3-(4-(methyl)piperazin-1-yl)carbonyl)cyclopentane]
8 |  | 1.26 nM | C[C@](Cc1ccccc1)(NC(=O)c1cc2ccccc2s1)C(=O)N[C@H](Cc1ccccc1)C(=O)NCCCN1CCOCC1 [Example 34, N^α[N^α(benzo[b]thiophen-2-ylcarbonyl)-D-α-methylphenylalanil]-D-phenylalanine-N-[3-(morpholin-4-yl)propyl]amide]
9 | 9.5 |  | N[C@H]1CCCC[C@@H]1NC[C@@H]1CC[C@H](NC(=O)[C@@H](Cc2ccccc2)NC(=O)C2(NC(=O)c3cc4ccccc4s3)CCCC2)C1 [Example 38]
10 |  | 0.794 nM | O=C(C=Cc1ccc(Cl)c(Cl)c1)NC1(C(=O)N[C@H](Cc2ccccc2)C(=O)NCCCN2CCOCC2)CCCC1 [Example 44, 1-[3-(3,4-dichlorophenyl)-acryloylamino]-cyclopentanecarboxylic acid, [1-(3-morpholin-4-yl-propylcarbamoyl)-2-(R)-phenyl-ethyl]-amide]
11 |  | 0.398 nM | CC1CN(CCCNC(=O)[C@@H](Cc2ccccc2)NC(=O)C2(NC(=O)c3cc4ccccc4s3)CCCCC2)CC(C)O1 (stereo partly drawn) [Example 48, Benzo[b]thiophene-2-carboxylic acid (1-{1-[3-(2,6-dimethyl-morpholin-4-yl)-propylcarbamoyl]-2-(R)-phenyl-ethylcarbamoyl}-cyclohexyl)-amide]
12 |  | 0.398 nM | O=C(C=Cc1ccc(Br)c(Br)c1)NC1(C(=O)N[C@H](Cc2ccccc2)C(=O)NCCCN2CCOCC2)CCCC1 [Example 50, 1-[3-(3,4-dibromophenyl)-acryloylamino]-cyclopentanecarboxylic acid [1-(3-morpholin-4-yl-propylcarbamoyl)-2-(R)-phenyl-ethyl]-amide]
13 |  | 2 nM | CN1CCCN(CCCNC(=O)[C@@H](Cc2ccccc2)NC(=O)C2(NC(=O)c3cc4ccccc4s3)CCCC2)CC1 [Example 52, Benzo[b]thiophen-2-carboxylic acid, (1-{1(R)-[3-(4-methyl-[1,4]diazepan-1-yl)-propylcarbamoyl]-2-phenylethylcarbamoyl}-cyclopentyl)-amide TFA salt]
14 |  | 2.51 nM | COC1CCN(CCCNC(=O)[C@@H](Cc2ccccc2)NC(=O)C2(NC(=O)c3cc4ccccc4s3)CCCC2)CC1 [Example 53, Benzo[b]thiophene-2-carboxylic acid (1-{1(R)-[3-(4-methoxy-piperidin-1-yl)-propylcarbamoyl]-2-phenyl-ethylcarbamoyl}-cyclopentyl)-amide TFA salt]
15 |  | 1 nM | O=C(NC1(C(=O)N[C@H](Cc2ccccc2)C(=O)NCCCN2CCC3(CC2)OCCO3)CCCC1)c1cc2ccccc2s1 [Example 55, Benzo[b]thiophene-2-carboxylic acid (1-{1(R)-[3-(1,4-dioxa-8-aza-spiro[4.5]dec-8-yl)-propylcarbamoyl]-2-phenyl-ethylcarbamoyl}-cyclopentyl)-amide TFA salt]
16 |  | 1.58 nM | C[C@@H]1CN(C(=O)CCNC(=O)[C@@H](Cc2ccccc2)NC(=O)C2(NC(=O)c3cc4ccccc4s3)CCCC2)C[C@H](C)N1 [Example 56, Benzo[b]thiophene-2-carboxylic acid (1-{1(R)-[3-(3,5-cis-dimethylpiperazin-1-yl)-3-oxo-propylcarbamoyl]-2-phenyl-ethylcarbamoyl}-cyclopentyl)-amide TFA salt]
17 |  | 3.16 nM | O=C(NC1(C(=O)N[C@H](Cc2ccccc2)C(=O)NCCC(=O)N2CCN(c3ccccn3)CC2)CCCC1)c1ccc2cc(Br)ccc2c1 [Example 58, 6-Bromo-naphthalene-2-carboxylic acid (1-{1(R)-[3-oxo-3-(4-pyridin-2-yl-piperazin-1-yl)propylcarbamoyl]-2-phenyl-ethylcarbamoyl}-cyclopentyl)-amide TFA salt]
18 |  | 2 nM | O=C(NC1(C(=O)N[C@H](Cc2ccccc2)C(=O)NCCC(=O)N2CCN(CC3COCOC3)CC2)CCCC1)c1cc2ccccc2s1 [Example 62, Benzo[b]thiophene-2-carboxylic acid (1-{1(R)-[3-(4-[1,3]dioxan-5-ylmethyl-piperazin-1-yl)3-oxo-propylcarbamoyl]-2-phenyl-ethylcarbamoyl}-cyclopentyl)-amide TFA salt]
19 |  | 0.631 nM | NC1(C(=O)N2CCC(CNC(=O)[C@@H](Cc3ccccc3)NC(=O)C3(NC(=O)c4cc5ccccc5s4)CCCC3)CC2)CCCC1 [Example 63, Benzo[b]thiophene-2-carboxylic acid [1-(1(R)-{[1-(1-amino-cyclopentanecarbonyl)piperidin-4-ylmethyl]-carbamoyl}-2-phenyl-ethylcarbamoyl)-cyclopentyl]-amide]

Row | SMILES | pKi | Ki
20 | O=C(N[C@]1(C(=O)N[C@H](Cc2ccccc2)C(=O)NCCCN2CCOCC2)CCc2ccccc21)c1cc2ccccc2s1 [Example 23, N^α[N^α(benzo[b]thiophen-2-ylcarbonyl)-1-(R)-amino-indan-1-carboxy]-D-phenylalanine-N-[3(morpholin-4-yl)propyl]amide] |  | 2 nM
